The term MIC denotes the smallest concentration in the dilution series that meets the test's criterion for growth inhibition.

From ChEMBL document CHEMBL1649243, “TEM-168, a heretofore laboratory-derived TEM beta-lactamase variant found in an Escherichia coli clinical isolate” (2009) come the findings set out here.

Common to all, as to assay type: functional
In assay [1] the test system is Escherichia coli. Nature of the assay: Antimicrobial activity against Escherichia coli DH10B transformant harboring blaTEM-168 gene by Etest in presence of Tazobactam.
Assay [2] deals with Escherichia coli. The assay is described as follows: Antimicrobial activity against Escherichia coli NO8-1503 harboring blaTEM-168 gene by Etest in presence of Tazobactam.
The subject of assay [3] is Escherichia coli. Nature of the assay: Antimicrobial activity against Escherichia coli DH10B by Etest in presence of Tazobactam.
In assay [4] the test system is Escherichia coli. The assay is described as follows: Antimicrobial activity against Escherichia coli NO8-1503 harboring blaTEM-168 gene by broth microdilution method.
For assay [5], the system named is Escherichia coli. The assay is described as follows: Antimicrobial activity against Escherichia coli NO8-1503 harboring blaTEM-168 gene by broth microdilution method in presence of clavulanic acid. A general note: Dilution methods test growth across graded concentrations, often in twofold steps.
The test system of assay [6] is Escherichia coli. Nature of the assay: Antimicrobial activity against Escherichia coli DH10B transformant harboring blaTEM-168 gene by Etest.
In assay [7] the test system is Escherichia coli. The assay is described as follows: Antimicrobial activity against Escherichia coli DH10B by Etest.
The test system of assay [8] is Escherichia coli. The assay is described as follows: Antimicrobial activity against Escherichia coli NO8-1503 harboring blaTEM-168 gene by disk diffusion method. In general terms: In agar diffusion tests the substance spreads into inoculated agar from a disc or well.
Assay [9] deals with Escherichia coli. The assay is described as follows: Antimicrobial activity against Escherichia coli NO8-1503 harboring blaTEM-168 gene by Etest.
The subject of assay [10] is Escherichia coli. Nature of the assay: Antimicrobial activity against Escherichia coli DH10B transformant harboring blaTEM-168 gene by disk diffusion method.
Assay [11] relates to Escherichia coli. The assay is described as follows: Antimicrobial activity against Escherichia coli DH10B by disk diffusion method.
Assay [12] relates to Escherichia coli. The assay is described as follows: Antimicrobial activity against Escherichia coli DH10B transformant harboring blaTEM-168 gene by Etest in presence of clavulanic acid.
Assay [13] has as its system Escherichia coli. The assay is described as follows: Antimicrobial activity against Escherichia coli DH10B by broth microdilution method in presence of clavulanic acid.
Assay [14] deals with Escherichia coli. Nature of the assay: Antimicrobial activity against Escherichia coli NO8-1503 harboring blaTEM-168 gene by Etest in presence of clavulanic acid.
Assay [15] concerns Escherichia coli. The assay is described as follows: Antimicrobial activity against Escherichia coli DH10B by broth microdilution method.
In assay [16] the test system is Escherichia coli. Nature of the assay: Antimicrobial activity against Escherichia coli NO8-1503 harboring blaTEM-168 gene by disk diffusion method in presence of clavulanic acid.
For assay [17], the system named is Escherichia coli. Nature of the assay: Antimicrobial activity against Escherichia coli DH10B by Etest in presence of clavulanic acid.
The test system of assay [18] is Escherichia coli. The assay is described as follows: Antimicrobial activity against Escherichia coli DH10B transformant harboring blaTEM-168 gene by broth microdilution method.
For assay [19], the system named is Escherichia coli. Nature of the assay: Antimicrobial activity against Escherichia coli DH10B transformant harboring blaTEM-168 gene by disk diffusion method in presence of clavulanic acid.
The test system of assay [20] is Escherichia coli. Nature of the assay: Antimicrobial activity against Escherichia coli DH10B transformant harboring blaTEM-168 gene by broth microdilution method in presence of clavulanic acid.
The subject of assay [21] is Escherichia coli. The assay is described as follows: Antimicrobial activity against Escherichia coli DH10B by disk diffusion method in presence of clavulanic acid.

Values after ≈ are worked out from the molar mass of the structure shown.

As for `CCN1CCN(C(=O)N[C@@H](C(=O)N[C@@H]2C(=O)N3[C@@H]2SC(C)(C)[C@@H]3C(=O)O)c2ccccc2)C(=O)C1=O` [PIPERACILLIN], the figures for the MIC in the assay with Escherichia coli [1], with Escherichia coli [2] and with Escherichia coli [3] were over 256 µg/mL, over 256 µg/mL and 1.5 µg/mL, respectively.

For `CC(C)(O/N=C(\C(=O)N[C@@H]1C(=O)N2C(C(=O)[O-])=C(C[n+]3ccccc3)CS[C@H]12)c1csc(N)n1)C(=O)O` [CEFTAZIDIME], the MIC is 4 µg/mL (≈ 7.32 µM) with Escherichia coli [4]; 2 µg/mL in the assay on Escherichia coli [5]; 3 µg/mL (≈ 5.49 µM) against Escherichia coli [6]; 1 µg/mL (≈ 1.83 µM) with Escherichia coli [7]; 3 µg/mL (≈ 5.49 µM) against Escherichia coli [9]; 1 µg/mL with Escherichia coli [12]. In addition, the MIC in the assay on Escherichia coli [13] was 0.25 µg/mL; with Escherichia coli [14] it was 0.75 µg/mL; against Escherichia coli [15], at most 0.25 µg/mL; with Escherichia coli [17] it was 0.38 µg/mL; against Escherichia coli [18], 4 µg/mL (≈ 7.32 µM); with Escherichia coli [20], 1 µg/mL. In addition, the “inhibition zone (IZ)” value amounted to 8 mm in the assay with Escherichia coli [8]; 8 mm with Escherichia coli [10]; 16 mm in the assay with Escherichia coli [11]; 11 mm in the assay on Escherichia coli [16]; 10 mm in the assay on Escherichia coli [19]; 18 mm with Escherichia coli [21].

As to `COCC1=C(C(=O)O)N2C(=O)[C@@H](NC(=O)/C(=N\OC)c3csc(N)n3)[C@H]2SC1` [CEFPODOXIME], the MIC is 8 µg/mL (≈ 18.7 µM) against Escherichia coli [4]; 0.5 µg/mL with Escherichia coli [5]; at most 0.125 µg/mL in the assay with Escherichia coli [13]; 1 µg/mL (≈ 2.34 µM) with Escherichia coli [15]; 4 µg/mL (≈ 9.36 µM) in the assay with Escherichia coli [18]; 0.25 µg/mL in the assay with Escherichia coli [20]. The “inhibition zone (IZ)” value was 20 mm in the assay with Escherichia coli [8]; 20 mm with Escherichia coli [10]; 27 mm with Escherichia coli [11]; 15 mm in the assay with Escherichia coli [16]; 16 mm in the assay with Escherichia coli [19]; 21 mm with Escherichia coli [21].

Take `CC1(C)S[C@@H]2[C@H](NC(=O)[C@H](N)c3ccc(O)cc3)C(=O)N2[C@H]1C(=O)O` [AMOXICILLIN]: the MIC was determined as 64 µg/mL in the assay on Escherichia coli [12], 32 µg/mL with Escherichia coli [14] and 3 µg/mL in the assay on Escherichia coli [17].

Regarding `CO/N=C(\C(=O)N[C@@H]1C(=O)N2C(C(=O)[O-])=C(C[N+]3(C)CCCC3)CS[C@H]12)c1csc(N)n1`, the MIC with Escherichia coli [4] came out at 8 µg/mL (≈ 16.6 µM); in the assay on Escherichia coli [6], 2 µg/mL (≈ 4.16 µM); in the assay with Escherichia coli [9] it was 2 µg/mL (≈ 4.16 µM); in the assay with Escherichia coli [18] it was 4 µg/mL (≈ 8.32 µM).

Consider `CO/N=C(\C(=O)N[C@@H]1C(=O)N2C(C(=O)O)=C(COC(C)=O)CS[C@H]12)c1csc(N)n1` [CEFOTAXIME], for which the MIC in the assay with Escherichia coli [4] is at most 0.25 µg/mL; in the assay with Escherichia coli [5] it was at most 0.12 µg/mL; with Escherichia coli [6], 0.25 µg/mL (≈ 0.549 µM); in the assay on Escherichia coli [7] it was under 0.25 µg/mL; against Escherichia coli [9], 0.25 µg/mL (≈ 0.549 µM); in the assay on Escherichia coli [12], 0.094 µg/mL. The MIC in the assay with Escherichia coli [13] is at most 0.12 µg/mL; with Escherichia coli [14], 0.094 µg/mL; in the assay on Escherichia coli [15] it was at most 0.25 µg/mL; in the assay with Escherichia coli [17], 0.094 µg/mL. For the same compound, the “inhibition zone (IZ)” value with Escherichia coli [8] is given as 23 mm; in the assay on Escherichia coli [10], 26 mm; in the assay on Escherichia coli [11], 29 mm; in the assay with Escherichia coli [16] it was 24 mm; in the assay on Escherichia coli [19], 30 mm; with Escherichia coli [21], 33 mm.

`CO[C@@]1(NC(=O)Cc2cccs2)C(=O)N2C(C(=O)O)=C(COC(N)=O)CS[C@@H]21` [CEFOXITIN]: the figures for the MIC in the assay on Escherichia coli [6], with Escherichia coli [7] and against Escherichia coli [9] were 6 µg/mL (≈ 14 µM), 8 µg/mL (≈ 18.7 µM) and 12 µg/mL (≈ 28.1 µM), respectively.
